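Grown in 96-well plates, cells were treated for 48 hours with each compound at five concentrations. Insufficient inhibition: endpoint recorded as highest concentration tested. Abbreviation: GI50, concentration required for 50% inhibition of growth. TGI denotes the concentration required for complete inhibition of growth.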
What was measured:
Test in all cases: inhibition of tumour cell growth, NCI panel, 48 h
[1] = system: LOX IMVI melanoma
[2] = system: MDA-MB-435
[3] = system: SW-620 colon
[4] = system: COLO 205 colon
[5] = system: UACC-62 melanoma
[6] = system: A498 renal
[7] = system: U251 CNS
[8] = system: HS 578T breast
[9] = system: NCI-H226 lung
[10] = system: UACC-257 melanoma
[11] = system: UO-31 renal
[12] = system: T-47D breast
[13] = system: SF-295 CNS
[14] = system: HL-60(TB) leukemia
[15] = system: OVCAR-5 ovarian
[16] = system: CAKI-1 renal
[17] = system: HOP-62 NSCLC
[18] = system: IGROV1 ovarian
[19] = system: EKVX NSCLC
[20] = system: HCT-15 colon
[21] = system: KM12 colon
[22] = system: ACHN renal
[23] = system: M14 melanoma
[24] = system: NCI/ADR-RES ovarian
[25] = system: HOP-92 NSCLC
[26] = system: SNB-75 CNS
[27] = system: SK-OV-3 ovarian
[28] = system: SK-MEL-5 melanoma
[29] = system: A549 NSCLC
[30] = system: OVCAR-8 ovarian
[31] = system: MALME-3M melanoma
[32] = system: 786-0 renal
[33] = system: RPMI-8226 leukemia
[34] = system: CCRF-CEM leukemia
[35] = system: HCT-116 colon
[36] = system: HCC-2998 colon
[37] = system: K-562 leukemia
[38] = system: SF-539 CNS
[39] = system: SF-268 CNS
[40] = system: OVCAR-3 ovarian
[41] = system: SK-MEL-28 melanoma
[42] = system: PC-3 prostate
[43] = system: DU-145 prostate
[44] = system: MCF7 breast
[45] = system: NCI-H460 lung
[46] = system: MDA-MB-231 breast
[47] = system: SNB-19 CNS
[48] = system: OVCAR-4 ovarian
[49] = system: NCI-H23 lung
[50] = system: RXF 393 renal
[51] = system: SN12C renal
[52] = system: BT-549 breast
[53] = system: SK-MEL-2 melanoma
[54] = system: MOLT-4 leukemia
[55] = system: HT29 colon

Compound: CN(C)CC(O)c1ccc(/C=C/c2ccc(Cl)cc2)cc1 (stereo not drawn)
- GI50 [1]: 1630 nM
- TGI [1]: 2980 nM
- GI50 [2]: 1620 nM
- TGI [2]: 3130 nM
- GI50 [3]: 1600 nM
- TGI [3]: 2950 nM
- GI50 [4]: 1710 nM
- TGI [4]: 3170 nM
- GI50 [5]: 1620 nM
- TGI [5]: 3020 nM
- GI50 [6]: 1370 nM
- TGI [6]: 2660 nM
- GI50 [7]: 1530 nM
- TGI [7]: 2860 nM
- GI50 [8]: 1490 nM
- TGI [8]: 3210 nM
- GI50 [9]: 11900 nM
- TGI [9]: 27300 nM
- GI50 [10]: 1630 nM
- TGI [10]: 3150 nM
- GI50 [11]: 1300 nM
- TGI [11]: 2610 nM
- GI50 [12]: 3760 nM
- TGI [12]: 16600 nM
- GI50 [13]: 1530 nM
- TGI [13]: 3000 nM
- GI50 [14]: 1110 nM
- TGI [14]: 2700 nM
- GI50 [15]: 1720 nM
- TGI [15]: 3590 nM
- GI50 [16]: 706 nM
- TGI [16]: 2050 nM
- GI50 [17]: 3130 nM
- TGI [17]: 14000 nM
- GI50 [18]: 1210 nM
- TGI [18]: 2640 nM
- GI50 [19]: 1340 nM
- TGI [19]: 3190 nM
- GI50 [20]: 1620 nM
- TGI [20]: 3320 nM
- GI50 [21]: 1660 nM
- TGI [21]: 3030 nM
- GI50 [22]: 1630 nM
- TGI [22]: 3010 nM
- GI50 [23]: 1670 nM
- TGI [23]: 3110 nM
- GI50 [24]: 1670 nM
- TGI [24]: 3190 nM
- GI50 [25]: 1260 nM
- TGI [25]: 3130 nM
- GI50 [26]: 1710 nM
- TGI [26]: 4180 nM
- GI50 [27]: 13000 nM
- TGI [27]: 26500 nM
- GI50 [28]: 3490 nM
- TGI [28]: 13700 nM
- GI50 [29]: 1860 nM
- TGI [29]: 3380 nM
- GI50 [30]: 1750 nM
- TGI [30]: 3320 nM
- GI50 [31]: 1600 nM
- TGI [31]: 3340 nM
- GI50 [32]: 1630 nM
- TGI [32]: 2990 nM
- GI50 [33]: 5340 nM
- TGI [33]: 22400 nM
- GI50 [34]: 2260 nM
- TGI [34]: 4880 nM
- GI50 [35]: 1460 nM
- TGI [35]: 2780 nM
- GI50 [36]: 1540 nM
- TGI [36]: 2970 nM
- GI50 [37]: 1140 nM
- TGI [37]: 3550 nM
- GI50 [38]: 1820 nM
- TGI [38]: 3840 nM
- GI50 [39]: 1490 nM
- TGI [39]: 2880 nM
- GI50 [40]: 1570 nM
- TGI [40]: 2910 nM
- GI50 [41]: 1840 nM
- TGI [41]: 3450 nM
- GI50 [42]: 1420 nM
- TGI [42]: 3090 nM
- GI50 [43]: 1520 nM
- TGI [43]: 2850 nM
- GI50 [44]: 1630 nM
- TGI [44]: 3190 nM
- GI50 [45]: 1450 nM
- TGI [45]: 2750 nM
- GI50 [46]: 1700 nM
- TGI [46]: 3140 nM
- GI50 [47]: 2880 nM
- TGI [47]: 10400 nM
- GI50 [48]: 2490 nM
- TGI [48]: 6580 nM
- GI50 [49]: 1620 nM
- TGI [49]: 3190 nM
- GI50 [50]: 3890 nM
- TGI [50]: 16200 nM
- GI50 [51]: 10400 nM
- TGI [51]: 22900 nM

Compound: N=C(N)c1ccc(OCCCCCCCCCCOc2ccc(C(=N)N)cc2)cc1
- GI50 [22]: 1540 nM
- TGI [22]: 2880 nM
- GI50 [24]: 17700 nM
- TGI [24]: 83700 nM
- GI50 [36]: 1290 nM
- TGI [36]: 2790 nM
- GI50 [43]: 1610 nM
- TGI [43]: 3010 nM
- GI50 [50]: 1280 nM
- TGI [50]: 2870 nM

Compound: C#Cc1cccc(Nc2nc3cc([N+](=O)[O-])ccc3nc2Nc2ccc(O)cc2)c1
- GI50 [52]: 1710 nM
- TGI [52]: 3700 nM
- GI50 [1]: 1380 nM
- TGI [1]: 2690 nM
- GI50 [2]: 1670 nM
- TGI [2]: 3390 nM
- GI50 [3]: 1790 nM
- TGI [3]: 3870 nM
- GI50 [4]: 1900 nM
- TGI [4]: 3710 nM
- GI50 [5]: 1620 nM
- TGI [5]: 2990 nM
- GI50 [6]: 3080 nM
- TGI [6]: 13700 nM
- GI50 [7]: 1800 nM
- TGI [7]: 3710 nM
- GI50 [8]: 1890 nM
- TGI [8]: 4710 nM
- GI50 [53]: 2070 nM
- TGI [53]: 4360 nM
- GI50 [10]: 2090 nM
- TGI [10]: 4340 nM
- GI50 [11]: 1530 nM
- TGI [11]: 3120 nM
- GI50 [12]: 1930 nM
- TGI [12]: 6240 nM
- GI50 [14]: 2420 nM
- TGI [14]: 5630 nM
- GI50 [54]: 1200 nM
- TGI [54]: 4170 nM
- GI50 [16]: 2190 nM
- TGI [16]: 5040 nM
- GI50 [17]: 1670 nM
- TGI [17]: 3350 nM
- GI50 [18]: 1780 nM
- TGI [18]: 4370 nM
- GI50 [19]: 1860 nM
- TGI [19]: 5260 nM
- GI50 [21]: 1830 nM
- TGI [21]: 3890 nM
- GI50 [22]: 1610 nM
- TGI [22]: 4010 nM
- GI50 [23]: 1430 nM
- TGI [23]: 2990 nM
- GI50 [24]: 1840 nM
- TGI [24]: 4370 nM
- GI50 [25]: 1790 nM
- TGI [25]: 3600 nM
- GI50 [26]: 1360 nM
- TGI [26]: 3420 nM
- GI50 [27]: 2340 nM
- TGI [27]: 5970 nM
- GI50 [28]: 1790 nM
- TGI [28]: 3230 nM
- GI50 [29]: 2170 nM
- TGI [29]: 4780 nM
- GI50 [30]: 2330 nM
- TGI [30]: 6480 nM
- GI50 [31]: 1930 nM
- TGI [31]: 4320 nM
- GI50 [32]: 1590 nM
- TGI [32]: 3430 nM
- GI50 [33]: 2240 nM
- TGI [33]: 8000 nM
- GI50 [34]: 1330 nM
- TGI [34]: 6010 nM
- GI50 [35]: 1460 nM
- TGI [35]: 2900 nM
- GI50 [36]: 1750 nM
- TGI [36]: 3450 nM
- GI50 [37]: 2100 nM
- TGI [37]: 6410 nM
- GI50 [38]: 1750 nM
- TGI [38]: 3290 nM
- GI50 [39]: 1560 nM
- TGI [39]: 3450 nM
- GI50 [40]: 1870 nM
- TGI [40]: 4140 nM
- GI50 [41]: 1780 nM
- TGI [41]: 3340 nM
- GI50 [42]: 1650 nM
- TGI [42]: 3910 nM
- GI50 [43]: 1810 nM
- TGI [43]: 3770 nM
- GI50 [55]: 1710 nM
- TGI [55]: 3420 nM
- GI50 [44]: 2200 nM
- TGI [44]: 6110 nM
- GI50 [46]: 1800 nM
- TGI [46]: 3800 nM
- GI50 [47]: 1780 nM
- TGI [47]: 3190 nM
- GI50 [48]: 1990 nM
- TGI [48]: 5030 nM
- GI50 [50]: 1730 nM
- TGI [50]: 3580 nM

— PubChem BioAssay (NCI)
